Source: the NIST ThermoML archive (doi:10.1021/je800047t)
Values joined by “and” are separate entries in the source; they are usually repeats but may differ in a detail not shown here. Equal values may be shown once.

Experiment: molar heat capacity at constant pressure
Details: 101.33 kPa, Small sample (50 mg) DSC

O[C@@H]1CCCC[C@@H]1O [cis-1,2-cyclohexanediol]
Details	molar heat capacity at constant pressure
174.3 K, Crystal 2	89.6 J/K/mol
185.2 K, Crystal 2	92.7 J/K/mol
193.1 K, Crystal 2	100 J/K/mol
202.2 K, Crystal 2	101.1 J/K/mol
215.9 K, Crystal 2	111 J/K/mol
230.1 K, Crystal 2	121.1 J/K/mol
248.1 K, Crystal 2	127.3 J/K/mol
259.2 K, Crystal 2	134.9 J/K/mol
266.2 K, Crystal 2	138.2 J/K/mol
273.1 K, Crystal 2	141.4 J/K/mol
278.2 K, Crystal 2	148.8 J/K/mol
283 K, Crystal 2	151.1 J/K/mol
288.2 K, Crystal 2	152 J/K/mol and 154.2 J/K/mol
293.2 K, Crystal 2	157.8 J/K/mol and 157.6 J/K/mol
298.1 K, Crystal 2	160.4 J/K/mol
300.2 K, Crystal 2	162 J/K/mol and 163.9 J/K/mol
308.2 K, Crystal 2	168 J/K/mol and 166.4 J/K/mol
316 K, Crystal 2	171.9 J/K/mol
323.3 K, Crystal 2	175 J/K/mol
328.2 K, Crystal 2	177.2 J/K/mol
333.2 K, Crystal 2	180.8 J/K/mol
339.2 K, Crystal 2	184.3 J/K/mol
344.1 K, Crystal 2	186.2 J/K/mol
346.3 K, Crystal 2	190 J/K/mol
348.1 K, Crystal 2	191.8 J/K/mol
350.2 K, Crystal 2	192.5 J/K/mol
363.1 K, Crystal 1	279.6 J/K/mol
366.2 K, Crystal 1	284.9 J/K/mol
367.2 K, Crystal 1	290.4 J/K/mol
368.2 K, Crystal 1	292.8 J/K/mol
378.1 K, Liquid	297.9 J/K/mol
383.2 K, Liquid	300 J/K/mol
385.2 K, Liquid	302.5 J/K/mol
388 K, Liquid	304.1 J/K/mol
393.2 K, Liquid	305 J/K/mol
397.3 K, Liquid	306.3 J/K/mol
403.1 K, Liquid	310.5 J/K/mol
413.2 K, Liquid	312.8 J/K/mol

O[C@H]1CC[C@H](O)CC1 [trans-1,4-cyclohexanediol]
Details	molar heat capacity at constant pressure
176.5 K, Crystal	100.6 J/K/mol
183.2 K, Crystal	105.6 J/K/mol
189.1 K, Crystal	109.5 J/K/mol
198.9 K, Crystal	115.4 J/K/mol
206.9 K, Crystal	115.6 J/K/mol
215 K, Crystal	121 J/K/mol
222.2 K, Crystal	124.6 J/K/mol
230.2 K, Crystal	127.3 J/K/mol
238.3 K, Crystal	135.4 J/K/mol
258.3 K, Crystal	142.2 J/K/mol
273.2 K, Crystal	145.6 J/K/mol
278.1 K, Crystal	148.8 J/K/mol and 150.6 J/K/mol and 149 J/K/mol
283.2 K, Crystal	151 J/K/mol and 151.1 J/K/mol
288.2 K, Crystal	154 J/K/mol
293.2 K, Crystal	156.4 J/K/mol and 157.4 J/K/mol
303.2 K, Crystal	167 J/K/mol
308.1 K, Crystal	168.1 J/K/mol and 169.9 J/K/mol
313.2 K, Crystal	173 J/K/mol
323.3 K, Crystal	174 J/K/mol
333.1 K, Crystal	177.4 J/K/mol
343.2 K, Crystal	181.4 J/K/mol and 183.9 J/K/mol
353.1 K, Crystal	187.1 J/K/mol
363.2 K, Crystal	190.5 J/K/mol
373.2 K, Crystal	198 J/K/mol
393.1 K, Liquid	310.7 J/K/mol
403.2 K, Liquid	313 J/K/mol
